“Also recorded” adds a separate entry of the source.
What was measured:
porcine artery = details: cited from earlier work
[1] = tested on: balloon injured rat carotid arteries (neointimal hyperplasia); test: Balloon injury of rat carotid arteries, local heparin delivery with or without electroporation, arterial morphometry at day 28; format: in vivo; details: for Active lumen area / Intimal wall thickness / Mean intimal area / Medial area / Intima/media thickness ratio: day 28, mean ± SEM; for Neointima formation (in words): 28 days
Description: Mature adult male Sprague-Dawley rats (Harlan, San Diego, Calif.) with an average body weight of 423.8±8.6 (SEM) gm were housed in individual cages in light-dark cycled, temperature-controlled rooms. Standard laboratory chow and water were available ad lib. After a minimum of 7 days acclimatization, the rats were anesthetized with an intramuscular injection of ketamine, 90 mg/kg (Phoenix, St. Joseph, Mo.) and xylazine, 15 mg/kg (Fermenta, Kansas City, Mo.). After anesthesia, they were strapped supine on a surgical table with body temperature maintained at 37° C. using a thermostatic blanket. The animals breathed spontaneously and Lead II electrocardiogram was monitored throughout the experiment. […] All procedures conformed to the guiding principles of the American Physiological Society and Institutional Animal Care and Use Committee (Department of Health and Human Services, National Institutes of Health).
Neointimal hyperplasia in rats was induced by a technique described earlier by Clowes et al. (A. W. Clowes and M. M. Clowes, supra). Briefly, the left and right common carotid arteries (CCA) were isolated through cervical incision. After isolation of the arteries, the left CCA at the thoracic entry point was temporarily clamped with a bulldog clip. The right CCA served as a control artery and was not surgically manipulated. The left CCA was catheterized through a proximal incision at the junction of the internal and external carotid arteries with a 2F Fogarty embolectomy catheter (Baxter Healthcare Corporation, Irvine, Calif.). The catheter was advanced to the distal CCA, inflated with 0.3 ml of ambient air for 30 sec each time, and retracted to the internal carotid-external carotid junction three times, with one rotation after each passage to ensure uniform injury of the arterial wall. The Fogarty catheter was then withdrawn and exchanged for a porous balloon electroporation (PBE) catheter.
The PBE catheter (manufactured by Danforth Biomedical, Santa Clara, Calif. as per design provided by Genetronics, Inc., San Diego, Calif.) is comprised of a 2F, triple-lumen shaft with a porous 1.5 cm long PET balloon at the distal end. Catheter lumens are used for passage of a 0.014″ guide wire for balloon inflation and deflation and as a conduit for the lead to the central electrode inside the balloon. The balloon has an inflated diameter of 1.4 mm, with four rows of 7 holes each (nominal hole size: 15-25 μm). The balloon serves as a reservoir for the heparin-containing composition. The central electrode inside the balloon is a coiled silver wire wrapped tightly and densely around the catheter shaft, over a length of approximately 10 mm. This balloon electrode acts as the cathode and the inserted guidewire as the anode. The distance between the distal end of the balloon electrode and the proximal end of the bare zone of the conductive guidewire was 4 mm (FIG. 9).
Following balloon catheter injury of the left CCA, rats were divided into three groups. Groupl received local intracarotid delivery of heparin (Elkins-Sinn, Cherry Hill, N.J.), but no electrical pulsing (positive untreated test: H+E−; H stands for heparin and E for electrical pulsing; + or − designate […] of H or E, respectively). Group 2 received a sequence of four electroporative pulses in the presence of heparin (positive treated test: H+E+). The uninjured right CCA of all animals comprised Group 3 which received neither drug nor electrical pulses and served as negative untreated control (H−E−).
Immediately following balloon injury of the vessel, a PBE catheter was introduced into the injured portion of the left CCA after placement of a temporary clip at the distal end of the balloon injured segment. Heparin (200 IU in 0.1 ml) (Elkins-Sinn) was delivered through the balloon pores into the arterial wall over a period of approx. 20 seconds. […]

porcine carotid artery = details: pig, in vivo; cited from earlier work
[2] = Group 2 H+E+ Inj+, with electroporation

heparin
Fraction of drug washed out (porcine artery; approximately 1 hour after iontophoretic delivery): 96%
Concentration remaining in the vessel, IO versus passive delivery (porcine artery; heparin 1000 U to 20,000 U/ml): greater concentrations remaining in the vessel
Safety of iontophoretic delivery (porcine artery; heparin 1000 U/ml, coronary angiography, blood pressure, cardiac rhythm): safe and well tolerated
Platelet deposition (porcine artery; pig balloon injury model, following IO delivery): reduced
Active lumen area ([1]; Group 1 H+E− Inj+, no pulsing): 0.295 sq. mm
Intimal wall thickness ([1]; Group 1 H+E− Inj+, no pulsing): 541 μm
Mean intimal area ([1]; Group 1 H+E− Inj+, no pulsing): 0.778 sq. mm
Medial area ([1]; Group 1 H+E− Inj+, no pulsing): 0.254 sq. mm
Intima/media thickness ratio ([1]; Group 1 H+E− Inj+: heparin 200 IU local, no electrical pulsing): 2.96
Active lumen area [1, 2]: 0.902 sq. mm
Intimal wall thickness [1, 2]: 26.10 μm
Mean intimal area [1, 2]: 0.067 sq. mm
Medial area [1, 2]: 0.338 sq. mm
Intima/media thickness ratio ([1]; Group 2 H+E+ Inj+: heparin 200 IU local plus 4 pulses 100 V 20 ms): 0.25
Slope of linear regression, active lumen area versus IEL area ([1]; H+E+ group): 0.57
Neointima formation (in words) ([1]; H+E+: heparinized, electroporated balloon injured arteries, versus H+E−): significant reduction in the volume of neointima; also recorded: vastly reduced neointimal thickness; also recorded: strong reduction in the formation of neointimal volume
Slope of linear regression, active lumen area versus IEL area ([1]; H+E− group): 0.17
Neointima formation (in words) ([1]; H+E−: heparinized, non-electroporated balloon injured arteries): marked proliferation of neointima; also recorded: pronounced neointima formation
Pre-sacrificial electrocardiogram (Lead II) ([1]; all groups): did not reveal any rhythm abnormality
Period of inhibition of neointimal growth and favorable remodeling ([1]; electroporation-enhanced delivery of heparin): at least 28 days
Tolerability of surgery and arterial electroporation ([1]; rats, behavior and weight): tolerated the surgery and arterial electroporation well

hirudin
Fraction of drug washed out (porcine carotid artery): 80%
Level in the artery (porcine carotid artery): the same as for passive delivery

Source: patent publication US20020183684A1, “Electroporation-enhanced inhibition of vascular neointimal hyperplasia” (GENETRONICS, priority 1996, published 2002)
